Structures are written as SMILES. A value given as a limit tells only on which side of the number the result lay.

In general, IC50 refers to the midpoint of a concentration-inhibition curve.

For this assay, the target named is T1, Acyl-CoA: Cholesterol Acyltransferase (ACAT) (Rattus norvegicus, UniProt Q7TQM4).
T1 construct: centrifuged at 105,000×g for 1 hour to pellet the microsomes; from tissue; host or cells: liver microsomes of male Sprague Dawley rats
T1 sequence (Q7TQM4 1-524): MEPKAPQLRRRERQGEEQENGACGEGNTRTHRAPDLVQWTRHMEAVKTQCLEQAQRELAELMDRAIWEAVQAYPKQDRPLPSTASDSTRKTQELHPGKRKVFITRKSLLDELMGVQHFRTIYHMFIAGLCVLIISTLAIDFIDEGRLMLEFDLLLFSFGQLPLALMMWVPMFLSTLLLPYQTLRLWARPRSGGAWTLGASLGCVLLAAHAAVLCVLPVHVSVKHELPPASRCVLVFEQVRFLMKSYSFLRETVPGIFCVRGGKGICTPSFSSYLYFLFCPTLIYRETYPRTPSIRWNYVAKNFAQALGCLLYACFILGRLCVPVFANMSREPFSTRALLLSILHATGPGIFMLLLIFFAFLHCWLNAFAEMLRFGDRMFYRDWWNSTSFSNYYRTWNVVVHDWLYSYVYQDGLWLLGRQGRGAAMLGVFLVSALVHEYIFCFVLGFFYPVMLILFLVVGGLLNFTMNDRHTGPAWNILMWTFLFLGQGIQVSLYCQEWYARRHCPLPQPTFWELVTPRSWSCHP
Kind of assay: Inhibition of Acyl-CoA: Cholesterol Acyltransferase (ACAT) in Hepatic Microsomes (In Vitro Assay). To be noted: 75 μM 14C-oleoyl-CoA, pH 7.4, 37° C., 10 min, read-out: ACAT Inhibitory Activity (In Vitro) (IC50). The class given is biochemical, rat (male Sprague Dawley). The procedure: A. Assay of the Inhibition of Acyl-CoA: Cholesterol Acyltransferase (ACAT) in Hepatic Microsomes (In Vitro Assay)
The ability of the compounds to inhibit ACAT, the enzyme responsible for the intracellular synthesis of cholesteryl esters, was tested as follows. Male Sprague Dawley rats weighing 150-300 g, were fed rat chow ad libitum. The animals were fasted for twenty-four hours prior to being euthanized by CO2. The livers were perfused in situ with 50 ml of cold 0.25 sucrose, excised, and homogenized in three volumes of 0.1M phosphate buffer, pH 7.4, that contained 0.5 mM EDTA (ethylenediamine-tetraacetic acid), 1.0 mM glutathione, 0.25M sucrose and […] leupeptin. Microsomes were obtained by differential centrifugation; the supernatant from an initial spin at 15,000×g for 15 minutes was centrifuged at 105,000×g for 1 hour to pellet the microsomes. The microsomes were suspended in homogenization buffer, reisolated by centrifugation, and stored at -70° C. Microsomes were used within one month of preparation.
The control assay in a final volume of 200 μl consisted of 200 μg of microsomal protein, 75 μM ^14 C-oleoyl-CoA (10,000 dpm/nmol) in 0.1M phosphate, pH 7.4, that contained 1 mM glutathione. Compounds were added in 5 μl of DMSO (dimethyl sulfoxide) and additional controls were run with DMSO only. All components, except the oleoyl-CoA, were preincubated for 15 min. at 37° C. prior to the initiation of the reaction by the addition of oleoyl-CoA. The assay was terminated after 10 min by the addition of 4 ml of chloroform:methanol (2:1, v/v). 20,000 dpm of ^3 H-cholesteryl oleate and 10 μg of unlabeled cholesteryl oleate and oleic acid were added as an internal standard and carriers, respectively. After allowing 10 min. for lipid extraction, the samples were centrifuged at 1,000×g for 10 min to separate the solvent layers. The chloroform layer containing the neutral lipids was spotted onto a Baker SI250-Pa silica gel TLC plate and the plate developed using a hexane:diethyl ether:acetic acid (170:30:1) v/v/v) mobile phase. The lipids were visualized by their interaction with iodine vapor and the cholesteryl ester spot was scraped into a scintillation vial and counted. The specific activity of ACAT in the control incubation averaged 260 pmol/min/mg microsomal protein. The data obtained are expressed as the concentration at which ACAT activity is inhibited by 50% (IC50).
On to `CSc1cc(C)nc(SC)c1NC(=O)C(Sc1ccccc1)c1ccccc1` (single isomer, unassigned) [Example 63, N-[2,4-his (methylthio)-6-methyl-3-pyridyl]-L-(+)-α-phenylthio-phenylacetamide], for which the half-maximal inhibitory concentration (IC50) was under 1 µM.

As to `CSc1cc(C)nc(SC)c1NC(=O)C(SCc1ccc(C(C)(C)C)cc1)c1ccc(C(C)(C)C)cc1` (stereo not drawn) [Example 439, N-[2,4-bis(methylthio)-6-methyl-3-pyridyl]-α-(4-tert-butyl-benzylthio)-4-tert-butylphenylacetamide], the IC50 is under 1 µM.

Take `CCCCCCSC(C(=O)Nc1c(SC)cc(C)nc1SC)c1ccc(Cl)cc1` (stereo not drawn) [Example 85, N-[2,4-bis(methylthio)-6-methyl-3-pyridyl]-α-hexylthio-4-chloro-phenylacetamide]: the concentration for half-maximal inhibition (IC50) was under 1 µM.

As for `CCCCOc1ccc(CSC(C(=O)Nc2c(SC)cc(C)nc2SC)c2ccc(C(C)C)cc2)cc1` (stereo not drawn) [Example 411, N-[2,4-bis(methylthio)-6-methyl-3-pyridyl]-α-(4-butoxy-benzylthio)-4-isopropylphenylacetamide], the IC50 was under 1 µM.

For the molecule `COc1ccc(SC(C(=O)Nc2c(SC)cc(C)nc2SC)c2ccc(C(F)(F)F)cc2)cc1` (stereo not drawn) [Example 394, N-[2,4-bis(methylthio)-6-methyl-3-pyridyl]-α-(4-methoxy-phenylthio)-4-trifluoromethyl-phenylacetamide], the half-inhibitory concentration (IC50) is under 1 µM.

Regarding `CCCCCCSC(C(=O)Nc1c(SC)cc(C)nc1SC)c1ccccc1` (single isomer, unassigned) [Example 41, N-[2,4-bis(methylthio)-6-methyl-3-pyridyl]-L-(+)-α-hexylthio-phenylacetamide], the IC50 was under 1 µM.

On to `COc1ccc(C(SCc2ccccc2)C(=O)Nc2c(SC)cc(C)nc2SC)cc1` (stereo not drawn) [Example 122, N-[2,4-bis(methylthio)-6-methyl-3-pyridyl]-α-benzylthio-4-methoxy-phenylacetamide], for which the IC50 was under 1 µM.

In the case of `CSc1cc(C)nc(SC)c1NC(=O)C(SCc1ccccc1)c1ccc(Cl)cc1` (stereo not drawn) [Example 89, N-[2,4-bis(methylthio)-6-methyl-3-pyridyl]-α-benzylthio-4-chloro-phenylacetamide], the IC50 was under 1 µM.

With `CSc1cc(C)nc(SC)c1NC(=O)C(SCc1ccccc1)c1ccc(C(F)(F)F)cc1` (stereo not drawn) [Example 379, N-[2,4-bis(methylthio)-6-methyl-3-pyridyl]-α-benzylthio-4-trifluoromethyl-phenylacetamide], the IC50 was under 1 µM.

For `CSc1cc(C)nc(SC)c1NC(=O)C(SCc1ccc(Cl)cc1)c1ccc(C(C)(C)C)cc1` (stereo not drawn) [Example 437, N-[2,4-bis(methylthio)-6-methyl-3-pyridyl]-α-(4-chloro-benzylthio)-4-tert-butylphenylacetamide], the IC50 is under 1 µM.

Take `CC(C)c1cccc(C(C)C)c1NC(=O)C(SCc1ccccc1)c1ccccc1` (single isomer, unassigned) [Example 48, N-(2,6-diisopropyl-phenyl)-D-(-)-α-benzylthio-phenylacetamide]: the 50% inhibitory concentration (IC50) is under 1 µM.

For the molecule `COc1ccc(C(Sc2ccccc2)C(=O)Nc2c(SC)cc(C)nc2SC)cc1` (stereo not drawn) [Example 135, N-[2,4-bis(methylthio)-6-methyl-3-pyridyl]-α-phenylthio-4-methoxy-phenylacetamide], the IC50 is under 1 µM.

`CCCCCCSC(C(=O)Nc1c(SC)cc(C)nc1SC)c1ccc(C(F)(F)F)cc1` (stereo not drawn) [Example 375, N-[2,4-bis(methylthio)-6-methyl-3-pyridyl]-α-hexylthio-4-trifluoromethyl-phenylacetamide]: the IC50 is under 1 µM.

Regarding `CCCCCCSC(C(=O)Nc1c(SC)cc(C)nc1SC)c1ccc(C(C)(C)C)cc1` (stereo not drawn) [Example 431, N-[2,4-bis(methylthio)-6-methyl-3-pyridyl]-α-hexylthio-4-tert-butylphenylacetamide], the IC50 is under 1 µM.

Regarding `CCCCCCSC(C(=O)Nc1c(SC)cc(C)nc1SC)c1ccc(F)cc1` (stereo not drawn) [Example 148, N-[2,4-bis(methylthio)-6-methyl-3-pyridyl]-α-hexylthio-4-fluoro-phenylacetamide], the IC50 is under 1 µM.

Consider `CSc1cc(C)nc(SC)c1NC(=O)C(SCc1ccc(F)cc1)c1ccc(-c2ccccc2)cc1` (stereo not drawn) [Example 464, N-[2,4-bis(methylthio)-6-methyl-3-pyridyl]-α-(4-fluoro-benzylthio)-4-biphenylacetamide], for which the IC50 is under 1 µM.

Turning to `CSc1cc(C)nc(SC)c1NC(=O)C(SCc1ccccc1)c1ccccc1` (single isomer, unassigned) [Example 46, N-[2,4-bis(methylthio)-6-methyl-3-pyridyl]-D-(-)-α-benzylthio-phenylacetamide], the IC50 is under 1 µM.

For the origin of these results see patent US5583147A, “Amides for the treatment of atherosclerosis” (The Dupont Merck Pharmaceutical Company, priority 1994, dated 1996).
